From patent publication US4181731A, “Novel therapeutic application of 4-carbamoyl-5-hydroxyimidazole” (Sumitomo Chemical Company, Limited, priority 1978, dated 1980)

How the values were obtained:
Masuji nephritis = assay: Antinephritic effects on Masuji nephritis; type: in vivo; conditions: for Urinary Protein: control 238.9; for Inhibition Ratio: urinary protein
Excerpt: The antinephritic activities were estimated according to the methods described in "Arerugii", Vol. 24, p. 472 (1975) (in Japanese).
*Successive oral administration began for 2 days before the injection of […]

[1] = Acute toxicity against mice; conditions: mouse, in vivo, mice (ICR, male, 22-25 g)
Excerpt: Acute toxicity of Compound A against mice (ICR, male, body weight 22-25 g) was as follows.

mice (ICR, male) = assay: Subacute toxicities against mice (oral, 21 days); type: in vivo; conditions: 100 mg/kg/day orally
Method: Subacute toxicities of Compound A against mice (ICR, male, body weight approximately 25 g) were as follows. The said compound was orally administered for 21 days. The dosage level was 100 mg/kg/day.

adjuvant arthritis = assay: Inhibitory effects on the adjuvant arthritis of rats (antirheumatic activity); type: in vivo; conditions: for Foot Volume: control 2.34 ml; for Inhibition Rate: foot volume
Method: The antirheumatic activities on adjuvant arthritis were estimated according to the methods described in "Arzneimittel-Forschung (Drug Res.)", Vol. 22, p. 1959 (1972).
*Successive administration was performed immediately after inoculation of […]

## NC(=O)c1nc[nH]c1O [Compound A, 4-carbamoyl-5-hydroxyimidazole]
Masuji nephritis; 5 mg/kg/day × 16, p.o.
  Urinary Protein: 147.6 mg/24 hrs.
  Inhibition Ratio: 38.2%
Masuji nephritis; 10 mg/kg/day × 16, p.o.
  Urinary Protein: 68.4 mg/24 hrs.
  Inhibition Ratio: 71.4%
Masuji nephritis; 25 mg/kg/day × 16, p.o.
  Urinary Protein: 28.4 mg/24 hrs.
  Inhibition Ratio: 88.1%
[1]; ip
  LD50: > 500 mg/kg
[1]; iv
  LD50: > 130 mg/kg
[1]; po
  LD50: > 2000 mg/kg
Mice (ICR, male)
  Autopsy: No adverse effect
  Body weight change: Normal
  Clinical signs: No adverse effect except slight involution of the spleen
  Food consumption: Normal
  Haematology, overall finding: No adverse effect
  Relative organ weight, Heart (average): 0.49%
  Relative organ weight, Kidney (average): 1.50%
  Relative organ weight, Liver (average): 6.24%
  Relative organ weight, Lung (average): 0.81%
  Relative organ weight, Spleen (average): 0.30%
  Relative organ weight, Testis (average): 0.38%
  Relative organ weight, Thymus (average): 0.20%
  Urinalysis, overall finding: No adverse effect
Mice (ICR, male); Haematology
  GOT (average): 54.4 K.U.
  Hematocrit value (average): 35%
  Hemoglobin (average): 15.1 g/dL
  Red blood cells (average): 6.0 × 10^6 /mm^3
  White blood cells (average): 6.5 × 10^4 /mm^3
Mice (ICR, male); Urinalysis
  Glucose (urinalysis): Negative
  Occult blood (urinalysis): Negative
  Protein (urinalysis): 30 to 100 mg/dL
  pH (urinalysis): 6.0-6.5
Adjuvant arthritis; 5 mg/kg/day × 21, p.o.
  Foot Volume: 1.28 mL
  Inhibition Rate: 45.3%
Adjuvant arthritis; 10 mg/kg/day × 21, p.o.
  Foot Volume: 0.88 mL
  Inhibition Rate: 62.3%
Adjuvant arthritis; 25 mg/kg/day × 21, p.o.
  Foot Volume: 0.44 mL
  Inhibition Rate: 81.2%
